Laboratory results from paper PMC6010057, “Synthesis, carbonic anhydrase I and II inhibition studies of the 1,3,5-trisubstituted-pyrazolines” (Journal of Enzyme Inhibition and Medicinal Chemistry, 2016).

Tests used:
[1] = molecular target: hCA I (Homo sapiens, UniProt P00915); assay: biochemical
[2] = molecular target: hCA II (Homo sapiens, UniProt P00918); assay: biochemical

Sequence of hCA I (P00915 whole entry): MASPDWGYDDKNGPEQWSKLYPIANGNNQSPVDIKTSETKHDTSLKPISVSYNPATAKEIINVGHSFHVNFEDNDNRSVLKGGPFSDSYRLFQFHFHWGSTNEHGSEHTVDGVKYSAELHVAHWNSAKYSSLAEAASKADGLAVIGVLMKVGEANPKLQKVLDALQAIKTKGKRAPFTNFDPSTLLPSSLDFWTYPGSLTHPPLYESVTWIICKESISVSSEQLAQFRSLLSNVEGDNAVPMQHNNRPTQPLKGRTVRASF

IC50 [1] [nM] | Ki [1] [nM] | IC50 [2] [nM] | Ki [2] [nM] | Structure (SMILES)
493 | 462 ± 134 | 536 | 587 ± 188 | NS(=O)(=O)c1ccc(N2N=C(c3ccc(F)cc3)CC2c2ccccc2)cc1 (stereo not shown) [Compound 13, 4-(3-(4-Fluorophenyl)-5-phenyl-4,5-dihydro-1H-pyrazol-1-yl)benzenesulfonamide]
484 | 533 ± 188 | 486 | 469 ± 63 | COc1ccc(C2=NN(c3ccc(S(N)(=O)=O)cc3)C(c3ccccc3)C2)cc1 (stereo not shown) [Compound 11, 4-(3-(4-Methoxyphenyl)-5-phenyl-4,5-dihydro-1H-pyrazol-1-yl)benzenesulfonamide]
403 | 378 ± 114 | 559 | 521 ± 132 | NS(=O)(=O)c1ccc(N2N=C(c3ccc(Cl)cc3)CC2c2ccccc2)cc1 (stereo not shown) [Compound 12, 4-(3-(4-Chlorophenyl)-5-phenyl-4,5-dihydro-1H-pyrazol-1-yl)benzenesulfonamide]
555 | 506 ± 133 | 586 | 625 ± 168 | NS(=O)(=O)c1ccc(N2N=C(c3ccccc3)CC2c2ccccc2)cc1 (stereo not shown) [Compound 9, 4-(3,5-Diphenyl-4,5-dihydro-1H-pyrazol-1-yl)benzenesulfonamide]

Continued, compound first:

Structure (SMILES) | IC50 [1] [nM] | Ki [1] [nM] | IC50 [2] [nM] | Ki [2] [nM]
NS(=O)(=O)c1ccc(N2N=C(c3ccc(Br)cc3)CC2c2ccccc2)cc1 (stereo not shown) [Compound 14, 4-(3-(4-Bromophenyl)-5-phenyl-4,5-dihydro-1H-pyrazol-1-yl)benzenesulfonamide] | 405 | 317 ± 9.6 | 470 | 412 ± 115
NS(=O)(=O)c1ccc(N2N=C(c3ccc([N+](=O)[O-])cc3)CC2c2ccccc2)cc1 (stereo not shown) [Compound 15, 4-(3-(4-Nitrophenyl)-5-phenyl-4,5-dihydro-1H-pyrazol-1-yl)benzenesulfonamide] | 416 | 326 ± 29.4 | 534 | 430 ± 87.3
NS(=O)(=O)c1ccc(N2N=C(c3ccc(O)cc3)CC2c2ccccc2)cc1 (stereo not shown) [Compound 16, 4-(3-(4-Hydroxyphenyl)-5-phenyl-4,5-dihydro-1H-pyrazol-1-yl)benzenesulfonamide] | 528 | 472 ± 57.5 | 459 | 592 ± 134
